Data taken from ChEMBL document CHEMBL1138597, “Synthesis and biological evaluation of ((4-keto)-phenoxy)methyl biphenyl-4-sulfonamides: a class of potent aggrecanase-1 inhibitors” (Bioorg Med Chem Lett, 2009).
Each block holds one compound with its values, some of them ahead of it. Active and inactive are the calls of the source. No cut-off for these calls is given here.

How the values were obtained:
[1] = target: T1, A disintegrin and metalloproteinase with thrombospondin motifs 4 (Homo sapiens, UniProt O75173); experiment: Inhibition of aggrecanase1
T1 sequence (O75173 whole entry): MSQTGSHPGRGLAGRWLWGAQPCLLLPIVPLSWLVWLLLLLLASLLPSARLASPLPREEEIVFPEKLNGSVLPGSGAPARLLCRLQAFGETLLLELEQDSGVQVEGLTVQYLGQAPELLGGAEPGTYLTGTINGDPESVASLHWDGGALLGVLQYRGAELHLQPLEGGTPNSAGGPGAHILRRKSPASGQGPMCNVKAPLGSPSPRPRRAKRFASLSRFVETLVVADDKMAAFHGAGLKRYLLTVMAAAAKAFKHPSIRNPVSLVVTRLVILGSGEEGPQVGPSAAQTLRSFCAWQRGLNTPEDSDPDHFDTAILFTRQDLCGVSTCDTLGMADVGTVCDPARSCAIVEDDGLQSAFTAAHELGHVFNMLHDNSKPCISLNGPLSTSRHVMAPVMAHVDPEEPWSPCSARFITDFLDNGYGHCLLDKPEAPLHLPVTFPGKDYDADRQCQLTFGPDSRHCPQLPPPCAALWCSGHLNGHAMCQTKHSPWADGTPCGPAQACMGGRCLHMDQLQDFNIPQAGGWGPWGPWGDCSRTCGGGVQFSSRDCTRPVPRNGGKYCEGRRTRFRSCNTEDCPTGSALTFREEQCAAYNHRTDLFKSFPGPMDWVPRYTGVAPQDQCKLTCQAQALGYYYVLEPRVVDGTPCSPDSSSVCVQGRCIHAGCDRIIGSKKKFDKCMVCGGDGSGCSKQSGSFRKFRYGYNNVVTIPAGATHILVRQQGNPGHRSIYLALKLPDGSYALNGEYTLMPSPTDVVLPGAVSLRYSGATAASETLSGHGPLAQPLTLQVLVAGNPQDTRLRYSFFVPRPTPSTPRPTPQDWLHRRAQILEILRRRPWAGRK

[2] = target: 72 kDa type IV collagenase (Homo sapiens, UniProt P08253); experiment: Inhibition of MMP2
Chain of 72 kDa type IV collagenase (P08253 whole entry): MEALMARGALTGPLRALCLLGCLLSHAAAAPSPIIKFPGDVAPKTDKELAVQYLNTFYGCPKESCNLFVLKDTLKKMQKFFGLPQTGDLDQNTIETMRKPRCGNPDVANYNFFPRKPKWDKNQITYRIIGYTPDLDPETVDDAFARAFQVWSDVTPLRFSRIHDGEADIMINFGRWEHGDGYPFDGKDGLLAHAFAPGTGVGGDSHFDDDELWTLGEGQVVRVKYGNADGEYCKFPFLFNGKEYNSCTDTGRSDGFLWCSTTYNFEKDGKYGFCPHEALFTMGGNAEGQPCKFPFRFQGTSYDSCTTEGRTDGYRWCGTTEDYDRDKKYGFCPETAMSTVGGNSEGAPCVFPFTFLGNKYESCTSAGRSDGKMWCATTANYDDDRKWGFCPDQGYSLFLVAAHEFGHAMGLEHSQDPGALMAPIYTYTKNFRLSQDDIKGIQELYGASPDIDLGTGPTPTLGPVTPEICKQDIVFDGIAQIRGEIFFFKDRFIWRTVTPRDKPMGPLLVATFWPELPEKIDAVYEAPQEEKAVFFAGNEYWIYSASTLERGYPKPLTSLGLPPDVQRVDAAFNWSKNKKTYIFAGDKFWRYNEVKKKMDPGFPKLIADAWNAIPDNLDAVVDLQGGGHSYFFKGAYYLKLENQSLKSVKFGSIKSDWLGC

[3] = target: T2, A disintegrin and metalloproteinase with thrombospondin motifs 4 (Bos taurus) (UniProt Q9TT93); experiment: Inhibition of IL1-induced aggrecanase activity in bovine cartilage explant assessed as inhibition of proteoglycan degradation at 10 ug/ml after 3 days
T2 sequence (whole entry): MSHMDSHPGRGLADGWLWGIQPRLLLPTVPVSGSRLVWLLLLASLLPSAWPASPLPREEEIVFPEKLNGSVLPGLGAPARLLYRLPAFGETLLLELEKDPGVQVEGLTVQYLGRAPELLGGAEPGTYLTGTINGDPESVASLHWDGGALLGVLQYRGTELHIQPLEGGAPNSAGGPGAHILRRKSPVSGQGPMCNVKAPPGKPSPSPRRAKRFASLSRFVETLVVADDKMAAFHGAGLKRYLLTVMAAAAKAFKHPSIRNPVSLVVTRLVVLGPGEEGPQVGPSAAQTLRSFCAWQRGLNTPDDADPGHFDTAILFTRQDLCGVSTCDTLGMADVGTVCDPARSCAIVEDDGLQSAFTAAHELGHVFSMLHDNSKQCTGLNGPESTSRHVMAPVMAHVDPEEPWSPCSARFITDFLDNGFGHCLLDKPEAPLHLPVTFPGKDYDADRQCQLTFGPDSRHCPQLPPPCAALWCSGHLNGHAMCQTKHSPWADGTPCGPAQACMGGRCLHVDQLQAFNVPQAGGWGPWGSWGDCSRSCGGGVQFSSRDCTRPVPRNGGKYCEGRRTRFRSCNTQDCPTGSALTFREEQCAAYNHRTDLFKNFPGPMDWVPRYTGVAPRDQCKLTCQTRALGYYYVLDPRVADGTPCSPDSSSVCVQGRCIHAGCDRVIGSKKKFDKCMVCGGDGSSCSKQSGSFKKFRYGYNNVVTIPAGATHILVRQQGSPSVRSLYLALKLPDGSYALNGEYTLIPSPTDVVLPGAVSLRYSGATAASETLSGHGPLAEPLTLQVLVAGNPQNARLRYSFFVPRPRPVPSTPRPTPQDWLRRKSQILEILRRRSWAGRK

Interstitial collagenase = target: T3, Interstitial collagenase (Homo sapiens, UniProt P03956); experiment: Inhibition of MMP1
T3 sequence (P03956 whole entry): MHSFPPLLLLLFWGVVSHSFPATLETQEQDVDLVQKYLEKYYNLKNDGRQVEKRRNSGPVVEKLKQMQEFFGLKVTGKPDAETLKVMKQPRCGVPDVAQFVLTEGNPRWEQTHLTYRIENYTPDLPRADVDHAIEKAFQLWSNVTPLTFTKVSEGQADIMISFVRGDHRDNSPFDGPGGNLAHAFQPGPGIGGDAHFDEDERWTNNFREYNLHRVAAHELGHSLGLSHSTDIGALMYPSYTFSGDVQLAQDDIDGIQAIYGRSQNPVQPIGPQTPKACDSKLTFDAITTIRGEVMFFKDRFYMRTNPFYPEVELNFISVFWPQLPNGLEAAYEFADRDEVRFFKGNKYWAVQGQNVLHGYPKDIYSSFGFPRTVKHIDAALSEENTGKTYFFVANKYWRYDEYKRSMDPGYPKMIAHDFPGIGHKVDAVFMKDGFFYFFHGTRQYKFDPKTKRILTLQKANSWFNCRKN

[4] = target: T2, A disintegrin and metalloproteinase with thrombospondin motifs 4 (Bos taurus); experiment: Inhibition of IL1-induced aggrecanase activity in bovine cartilage explant assessed as release of degraded extracellular matrix aggrecan
Collagenase 3 = Collagenase 3 (Homo sapiens, UniProt P45452); experiment: Inhibition of MMP13
[5] = target: T4, A disintegrin and metalloproteinase with thrombospondin motifs 5 (Homo sapiens) (UniProt Q9UNA0); experiment: Inhibition of aggrecanase2 at 2.5 uM
T4 sequence (whole entry): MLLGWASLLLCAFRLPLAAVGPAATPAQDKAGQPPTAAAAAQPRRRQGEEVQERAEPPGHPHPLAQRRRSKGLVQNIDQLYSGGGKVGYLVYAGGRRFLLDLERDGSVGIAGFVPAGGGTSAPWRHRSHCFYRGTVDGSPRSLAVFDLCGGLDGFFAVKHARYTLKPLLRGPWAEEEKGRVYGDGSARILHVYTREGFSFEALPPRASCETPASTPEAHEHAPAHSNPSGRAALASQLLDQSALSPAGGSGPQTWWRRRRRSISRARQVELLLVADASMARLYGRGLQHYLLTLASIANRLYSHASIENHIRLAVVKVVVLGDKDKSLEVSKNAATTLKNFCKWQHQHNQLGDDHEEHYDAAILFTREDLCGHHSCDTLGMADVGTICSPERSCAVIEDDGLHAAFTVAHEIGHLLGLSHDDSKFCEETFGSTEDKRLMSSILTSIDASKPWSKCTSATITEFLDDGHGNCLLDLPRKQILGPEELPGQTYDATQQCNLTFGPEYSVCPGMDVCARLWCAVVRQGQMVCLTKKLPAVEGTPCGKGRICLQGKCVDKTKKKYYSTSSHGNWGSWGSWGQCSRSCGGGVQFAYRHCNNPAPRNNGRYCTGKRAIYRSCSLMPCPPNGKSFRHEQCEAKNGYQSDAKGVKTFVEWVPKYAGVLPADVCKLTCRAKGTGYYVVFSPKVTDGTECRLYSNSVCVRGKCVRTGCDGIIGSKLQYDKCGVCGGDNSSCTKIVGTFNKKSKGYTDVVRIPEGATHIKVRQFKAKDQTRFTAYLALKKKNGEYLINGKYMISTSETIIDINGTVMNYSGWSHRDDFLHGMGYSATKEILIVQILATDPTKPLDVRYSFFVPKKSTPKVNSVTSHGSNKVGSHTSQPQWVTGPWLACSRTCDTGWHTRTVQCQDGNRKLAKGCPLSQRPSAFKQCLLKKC

[6] = target: Matrix metalloproteinase-14 (Homo sapiens, UniProt P50281); experiment: Inhibition of MMP14
[7] = target: T5, A disintegrin and metalloproteinase with thrombospondin motifs 5 (Homo sapiens, UniProt Q9UNA0); experiment: Inhibition of aggrecanase2
T5 sequence (Q9UNA0 whole entry): T4 sequence (whole entry)

[8] = Oral bioavailability in Sprague-Dawley rat at 25 mg/kg; type: ADME, organism-based; details: in vivo
[9] = Clearance in Sprague-Dawley rat at 2 mg/kg, iv or 25 mg/kg, po; type: ADME, organism-based; details: in vivo
[10] = Cmax in Sprague-Dawley rat at 2 mg/kg, iv or 25 mg/kg, po; type: ADME, organism-based; details: in vivo
[11] = Half life in Sprague-Dawley rat at 2 mg/kg, iv or 25 mg/kg, po; type: ADME, organism-based; details: in vivo

IC50 [1]: 730 nM
SMILES: Cc1cccc(Oc2ccc(OCc3ccc(-c4ccc(S(=O)(=O)N[C@@H](C(=O)O)C(C)C)cc4)cc3)cc2)n1

IC50 [1]: 700 nM
SMILES: Cc1c(CC(=O)Oc2ccc(-c3ccc(S(=O)(=O)N[C@@H](C(=O)O)C(C)C)cc3)cc2)oc2ccccc12

SMILES: CC(C)[C@@H](NS(=O)(=O)c1ccc(-c2ccc(COc3ccc(C(=O)c4ccc(F)cc4)cc3)cc2)cc1)C(=O)O
IC50 [1]: 80 nM
IC50 [2]: 3.6 nM
inhibition [3]: 71%
IC50 (Interstitial collagenase): > 100000 nM
Activity [4]: Active
IC50 (Collagenase 3): 6.3 nM
inhibition [5]: 55%
IC50 [6]: 220 nM

IC50 [1]: 20000 nM
SMILES: CC(C)[C@@H](NS(=O)(=O)c1ccc(-c2ccc(COc3ccc4c(c3)CCCC4=O)cc2)cc1OC(F)(F)F)C(=O)O

SMILES: CC(C)[C@@H](NS(=O)(=O)c1ccc(-c2ccc(COc3ccc4c(c3)CCCC4=O)cc2)cc1)C(=O)O
IC50 [1]: 230 nM
IC50 [7]: 6600 nM
IC50 [2]: 6.3 nM
inhibition [3]: 53%
IC50 (Interstitial collagenase): > 100000 nM
Activity [4]: Active
IC50 (Collagenase 3): 2.2 nM
IC50 [6]: 1300 nM

IC50 [1]: 4900 nM
SMILES: CC(C)[C@@H](NS(=O)(=O)c1ccc(-c2ccc(COc3cccc(N(C)C)c3)cc2)cc1)C(=O)O

IC50 [1]: 230 nM
SMILES: CC(C)[C@@H](NS(=O)(=O)c1ccc(-c2ccc(COc3ccc(C(=O)c4ccccc4)cc3)cc2)cc1)C(=O)O

IC50 [1]: 400 nM
SMILES: CC(C)[C@@H](NS(=O)(=O)c1ccc(-c2ccc(COc3ccc4ccccc4n3)cc2)cc1)C(=O)O

IC50 [1]: 200 nM
SMILES: CC(C)[C@@H](NS(=O)(=O)c1ccc(-c2ccc(COc3cc4cccc(C(F)(F)F)c4nc3C(F)(F)F)cc2)cc1)C(=O)O

IC50 [1]: 430 nM
SMILES: CC(=O)c1ccc(OCc2ccc(-c3ccc(S(=O)(=O)N[C@@H](C(=O)O)C(C)C)cc3)cc2)cc1

IC50 [1]: 90 nM
bioavailability [8]: 13%
IC50 [2]: 5.3 nM
inhibition [3]: 69%
IC50 (Interstitial collagenase): > 100000 nM
clearance [9]: 6.9 mL/min/kg
Cmax [10]: 694 ng/mL
Activity [4]: Active
half-life [11]: 3.07 h
IC50 (Collagenase 3): 15 nM
IC50 [6]: 1640 nM
SMILES: CC(C)[C@@H](NS(=O)(=O)c1ccc(-c2ccc(COc3ccc(C(=O)C4CCCCC4)cc3)cc2)cc1)C(=O)O

SMILES: CC(C)C(=O)c1ccc(OCc2ccc(-c3ccc(S(=O)(=O)N[C@@H](C(=O)O)C(C)C)cc3)cc2)cc1
IC50 [2]: 1.3 nM
Activity [3]: Active
IC50 (Interstitial collagenase): > 100000 nM
Activity [4]: Active
IC50 (Collagenase 3): 1.1 nM
IC50 [6]: 915 nM

IC50 [1]: 6000 nM
SMILES: CC(C)[C@@H](NS(=O)(=O)c1ccc(-c2ccc(COc3ccc(CN4CCOCC4)cc3)cc2)cc1)C(=O)O

IC50 [1]: 590 nM
SMILES: CC(C)[C@@H](NS(=O)(=O)c1ccc(-c2ccc(COc3ccc(NC(=O)OC(C)(C)C)cc3)cc2)cc1)C(=O)O

IC50 [1]: 3200 nM
SMILES: CC(C)[C@@H](NS(=O)(=O)c1ccc(-c2ccc(COc3ccc4c(c3)CCCC4=O)cc2)cc1C(F)(F)F)C(=O)O

IC50 [1]: 180 nM
SMILES: CC(C)[C@@H](NS(=O)(=O)c1ccc(-c2ccc(COc3ccc4c(c3)CCCC4=O)cc2)cc1F)C(=O)O

IC50 [1]: 5200 nM
SMILES: CC(C)[C@@H](NS(=O)(=O)c1ccc(-c2ccc(COc3ccc(C(=O)N4CCOCC4)cc3)cc2)cc1)C(=O)O
